# Measurements as given in publication PMC11449226, “Characterization of a β-carotene isomerase from the cyanobacterium Cyanobacteria aponinum” (Philosophical Transactions of the Royal Society B: …, 2024).
# Molecular target: T1, CaD27 (Cyanobacterium aponinum, UniProt K9Z764)
# T1 construct: gene Cyan10605_2981; thioredoxin fusion (pThio-Dan1-CaD27(-cTP)) in E. coli BL21(DE3) with pGro7 chaperones; crude lysate; Pfam PF13225 family
# T1 sequence (K9Z764 1-216): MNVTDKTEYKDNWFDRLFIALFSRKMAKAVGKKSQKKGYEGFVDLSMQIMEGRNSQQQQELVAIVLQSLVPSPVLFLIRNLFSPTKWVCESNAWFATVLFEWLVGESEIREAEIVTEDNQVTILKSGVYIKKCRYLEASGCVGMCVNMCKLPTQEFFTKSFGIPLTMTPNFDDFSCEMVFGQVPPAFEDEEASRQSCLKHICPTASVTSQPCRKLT
# Assay: isomerization assay, UHPLC
# Type: biochemical
# Settings: crude lysate of E. coli expressing thioredoxin-CaD27, compared with thioredoxin control
SMILES,"isomerization assay, UHPLC (product 9-cis-beta-carotene)","isomerization assay, UHPLC (products 9-cis- and 13-cis-beta-carotene, also tested in beta-carotene-accumulating E. coli)"
CC1=C(/C=C/C(C)=C/C=C/C(C)=C\C=C\C=C(C)\C=C\C=C(C)\C=C\C2=C(C)CCCC2(C)C)C(C)(C)CCC1 [13-cis-β-carotene],thioredoxin-CaD27 converted 13-cis-β-carotene into 9-cis-β-carotene,
CC1=C(/C=C/C(C)=C/C=C/C(C)=C/C=C/C=C(C)/C=C/C=C(C)/C=C/C2=C(C)CCCC2(C)C)C(C)(C)CCC1 [all-trans-β-carotene],,"we only detected the isomerization of all-trans-β-carotene into 9-cis, and 13-cis-β-carotene"
